Data from PubChem BioAssay (NCI).
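Following 48 hours of exposure in 96-well plates, responses at five concentrations were used to interpolate endpoints linearly. The concentration for full growth arrest is given as TGI.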

What was measured:
Assay in all cases: NCI tumour cell line growth inhibition, 48 h
786-0 renal = system: 786-0 renal
A549 NSCLC = system: A549 NSCLC
ACHN renal = system: ACHN renal
BT-549 breast = system: BT-549 breast
CAKI-1 renal = system: CAKI-1 renal
CCRF-CEM leukemia = system: CCRF-CEM leukemia
COLO 205 colon = system: COLO 205 colon
DU-145 prostate = system: DU-145 prostate
EKVX NSCLC = system: EKVX NSCLC
HCC-2998 colon = system: HCC-2998 colon
HCT-116 colon = system: HCT-116 colon
HCT-15 colon = system: HCT-15 colon
HL-60(TB) leukemia = system: HL-60(TB) leukemia
HOP-62 NSCLC = system: HOP-62 NSCLC
HOP-92 NSCLC = system: HOP-92 NSCLC
HS 578T breast = system: HS 578T breast
HT29 colon = system: HT29 colon
IGROV1 ovarian = system: IGROV1 ovarian
K-562 leukemia = system: K-562 leukemia
KM12 colon = system: KM12 colon
LOX IMVI melanoma = system: LOX IMVI melanoma
M14 melanoma = system: M14 melanoma
MCF7 breast = system: MCF7 breast
MDA-MB-231 breast = system: MDA-MB-231 breast
MDA-MB-435 = system: MDA-MB-435
MDA-N = system: MDA-N
MOLT-4 leukemia = system: MOLT-4 leukemia
NCI-H226 lung = system: NCI-H226 lung
NCI-H23 lung = system: NCI-H23 lung
NCI-H460 lung = system: NCI-H460 lung
NCI-H522 lung = system: NCI-H522 lung
NCI/ADR-RES ovarian = system: NCI/ADR-RES ovarian
OVCAR-3 ovarian = system: OVCAR-3 ovarian
OVCAR-4 ovarian = system: OVCAR-4 ovarian
OVCAR-5 ovarian = system: OVCAR-5 ovarian
OVCAR-8 ovarian = system: OVCAR-8 ovarian
PC-3 prostate = system: PC-3 prostate
RPMI-8226 leukemia = system: RPMI-8226 leukemia
RXF 393 renal = system: RXF 393 renal
SF-268 CNS = system: SF-268 CNS
SF-295 CNS = system: SF-295 CNS
SF-539 CNS = system: SF-539 CNS
SK-MEL-2 melanoma = system: SK-MEL-2 melanoma
SK-MEL-28 melanoma = system: SK-MEL-28 melanoma
SK-MEL-5 melanoma = system: SK-MEL-5 melanoma
SK-OV-3 ovarian = system: SK-OV-3 ovarian
SN12C renal = system: SN12C renal
SNB-19 CNS = system: SNB-19 CNS
SNB-75 CNS = system: SNB-75 CNS
SW-620 colon = system: SW-620 colon
T-47D breast = system: T-47D breast
TK-10 renal = system: TK-10 renal
U251 CNS = system: U251 CNS
UACC-257 melanoma = system: UACC-257 melanoma
UACC-62 melanoma = system: UACC-62 melanoma
UO-31 renal = system: UO-31 renal

With `O=C1c2ccccc2C(=Nc2ccc3ccccc3c2)C1(C1=C(c2ccccc2)C(=Nc2ccc3ccccc3c2)c2ccccc21)c1ccccc1` (stereo unspecified) the TGI (786-0 renal) was greater than 100 µM, the TGI (A549 NSCLC) was greater than 100 µM and the TGI (ACHN renal) was 15 µM. For the same compound, the TGI (BT-549 breast) was 73.3 µM, the TGI (CAKI-1 renal) was greater than 100 µM and the TGI (CCRF-CEM leukemia) was greater than 100 µM. For the same compound, the TGI (COLO 205 colon) was greater than 100 µM, the TGI (DU-145 prostate) was greater than 100 µM and the TGI (EKVX NSCLC) was greater than 100 µM. It also gave a TGI (HCC-2998 colon) greater than 63.4 µM, a TGI (HCT-116 colon) greater than 100 µM and a TGI (HCT-15 colon) greater than 23.8 µM. The TGI (HL-60(TB) leukemia) was greater than 29 µM, the TGI (HOP-62 NSCLC) was greater than 100 µM and the TGI (HOP-92 NSCLC) was greater than 100 µM. For the same compound, the TGI (HS 578T breast) was greater than 100 µM, the TGI (HT29 colon) was greater than 100 µM and the TGI (IGROV1 ovarian) was greater than 100 µM. The TGI (K-562 leukemia) was greater than 43.5 µM, the TGI (KM12 colon) was greater than 42.6 µM and the TGI (LOX IMVI melanoma) was greater than 100 µM. It also gave a TGI (M14 melanoma) greater than 86.8 µM, a TGI (MCF7 breast) greater than 65.6 µM and a TGI (MDA-MB-231 breast) greater than 100 µM. For the same compound, the TGI (MDA-MB-435) was greater than 87.3 µM, the TGI (MDA-N) was greater than 59.1 µM and the TGI (MOLT-4 leukemia) was 7.81 µM. For the same compound, the TGI (NCI-H226 lung) was greater than 44.4 µM, the TGI (NCI-H23 lung) was greater than 31.3 µM and the TGI (NCI-H460 lung) was greater than 100 µM. For the same compound, the TGI (NCI-H522 lung) was greater than 100 µM, the TGI (NCI/ADR-RES ovarian) was greater than 100 µM and the TGI (OVCAR-3 ovarian) was greater than 100 µM. It also gave a TGI (OVCAR-4 ovarian) greater than 100 µM, a TGI (OVCAR-5 ovarian) greater than 100 µM and a TGI (OVCAR-8 ovarian) greater than 94.1 µM. It also gave a TGI (PC-3 prostate) greater than 100 µM, a TGI (RPMI-8226 leukemia) of 18.2 µM and a TGI (RXF 393 renal) greater than 100 µM. For the same compound, the TGI (SF-268 CNS) was greater than 100 µM, the TGI (SF-295 CNS) was greater than 100 µM and the TGI (SF-539 CNS) was greater than 100 µM. The TGI (SK-MEL-2 melanoma) was greater than 69.5 µM, the TGI (SK-MEL-28 melanoma) was greater than 100 µM and the TGI (SK-MEL-5 melanoma) was 7.47 µM. For the same compound, the TGI (SK-OV-3 ovarian) was greater than 100 µM, the TGI (SN12C renal) was greater than 100 µM and the TGI (SNB-19 CNS) was greater than 100 µM. The TGI (SNB-75 CNS) was greater than 70.4 µM, the TGI (SW-620 colon) was greater than 100 µM and the TGI (T-47D breast) was greater than 100 µM. The TGI (TK-10 renal) was greater than 100 µM, the TGI (U251 CNS) was greater than 100 µM and the TGI (UACC-257 melanoma) was greater than 100 µM. For the same compound, the TGI (UACC-62 melanoma) was greater than 53.5 µM and the TGI (UO-31 renal) was 37 µM.
